Test results taken from patent publication US6403594B1, “Benzopyran derivatives” (Recordati, S.A. Chemical and Pharmaceutical Company, priority 1999, dated 2002).

How the values were obtained:
[1] = molecular target: T1, α1a-adrenoceptor (recombinant) (Homo sapiens, UniProt P35348); test: Radioligand binding, cloned α1a-adrenoceptor ([3H]prazosin); conditions: read-out: Affinity for recombinant α1a-adrenoceptor, cloned receptors (Ki)
T1 construct: expressed in transfected cells
T1 sequence (P35348 1-466): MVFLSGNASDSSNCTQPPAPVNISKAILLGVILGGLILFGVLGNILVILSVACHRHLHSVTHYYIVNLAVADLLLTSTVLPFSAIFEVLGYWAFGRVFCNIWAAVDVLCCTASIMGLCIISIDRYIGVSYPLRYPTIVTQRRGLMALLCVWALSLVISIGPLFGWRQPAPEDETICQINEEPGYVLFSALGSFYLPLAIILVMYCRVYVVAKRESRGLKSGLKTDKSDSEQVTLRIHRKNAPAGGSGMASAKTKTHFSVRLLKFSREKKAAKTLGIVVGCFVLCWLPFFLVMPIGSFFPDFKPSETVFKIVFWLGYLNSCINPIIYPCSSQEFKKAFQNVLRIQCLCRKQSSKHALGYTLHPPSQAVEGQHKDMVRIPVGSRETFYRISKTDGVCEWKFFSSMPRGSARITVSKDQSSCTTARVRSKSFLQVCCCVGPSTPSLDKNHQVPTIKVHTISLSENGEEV
Method: (§1) Determination of affinity for cloned subtypes of α1-adrenoceptor subtypes was performed in membranes from cells transfected by electroporation with DNA expressing the genes encoding each α1-adrenoceptor subtype.
(§2) Non-specific binding was determined in the presence of 10 μM phentolamine.
(§3) Incubation was stopped by addition of ice-cold Tris buffer and rapid filtration through 0.2% polyethyleneimine-pretreated Schleicher & Schuell GF52 filters.
(§4) Data were expressed as mean Ki.

[2] = molecular target: T2, α1b-adrenoceptor (recombinant) (Homo sapiens, UniProt P35368); test: Radioligand binding, cloned α1b-adrenoceptor ([3H]prazosin); conditions: read-out: Affinity for recombinant α1b-adrenoceptor, cloned receptors (Ki)
T2 construct: expressed in transfected cells
T2 sequence (P35368 1-520): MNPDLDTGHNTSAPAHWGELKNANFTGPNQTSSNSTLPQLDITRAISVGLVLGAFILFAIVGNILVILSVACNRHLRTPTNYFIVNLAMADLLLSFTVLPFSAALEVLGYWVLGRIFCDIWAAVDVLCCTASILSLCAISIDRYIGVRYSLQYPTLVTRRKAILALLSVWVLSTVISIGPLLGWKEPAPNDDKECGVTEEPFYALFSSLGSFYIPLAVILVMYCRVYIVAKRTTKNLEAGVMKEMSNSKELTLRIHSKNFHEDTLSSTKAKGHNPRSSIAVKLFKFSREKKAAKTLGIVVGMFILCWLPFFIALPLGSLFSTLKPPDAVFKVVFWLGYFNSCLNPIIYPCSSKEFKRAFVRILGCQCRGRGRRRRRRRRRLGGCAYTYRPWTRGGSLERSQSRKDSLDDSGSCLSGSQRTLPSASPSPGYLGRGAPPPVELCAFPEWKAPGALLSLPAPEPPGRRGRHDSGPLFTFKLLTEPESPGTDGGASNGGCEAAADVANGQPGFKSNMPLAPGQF
Method: as §1, §2, §3, §4

[3] = molecular target: T3, α1d-adrenoceptor (recombinant) (Homo sapiens, UniProt P25100); test: Radioligand binding, cloned α1d-adrenoceptor ([3H]prazosin); conditions: read-out: Affinity for recombinant α1d-adrenoceptor, cloned receptors (Ki)
T3 sequence (P25100 1-572): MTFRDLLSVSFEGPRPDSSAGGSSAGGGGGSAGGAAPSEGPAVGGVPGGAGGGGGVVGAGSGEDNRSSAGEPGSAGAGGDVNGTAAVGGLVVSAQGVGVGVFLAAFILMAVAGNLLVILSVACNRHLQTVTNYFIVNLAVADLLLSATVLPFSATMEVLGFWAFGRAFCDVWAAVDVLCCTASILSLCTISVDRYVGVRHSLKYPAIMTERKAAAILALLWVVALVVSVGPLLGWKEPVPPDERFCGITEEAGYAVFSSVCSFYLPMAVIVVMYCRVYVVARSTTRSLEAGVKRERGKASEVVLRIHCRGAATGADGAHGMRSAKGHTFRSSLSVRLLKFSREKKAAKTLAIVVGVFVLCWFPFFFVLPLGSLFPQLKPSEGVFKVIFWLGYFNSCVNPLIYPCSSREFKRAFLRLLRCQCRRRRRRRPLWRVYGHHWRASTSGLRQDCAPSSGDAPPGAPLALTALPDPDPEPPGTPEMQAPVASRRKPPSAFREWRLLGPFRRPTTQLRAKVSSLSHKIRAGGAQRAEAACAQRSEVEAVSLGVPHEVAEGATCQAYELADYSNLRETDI
Method: as §1, §2, §3, §4

[4] = molecular target: T4, α1L adrenoceptor (Oryctolagus cuniculus, UniProt O02824); test: Functional antagonism of noradrenaline-induced contractions of rabbit aorta pretreated with chloroethylclonidine; format: biochemical; conditions: NA-induced contractions of rabbit aorta pretreated with chloroethylclonidine
T4 sequence (O02824 1-466): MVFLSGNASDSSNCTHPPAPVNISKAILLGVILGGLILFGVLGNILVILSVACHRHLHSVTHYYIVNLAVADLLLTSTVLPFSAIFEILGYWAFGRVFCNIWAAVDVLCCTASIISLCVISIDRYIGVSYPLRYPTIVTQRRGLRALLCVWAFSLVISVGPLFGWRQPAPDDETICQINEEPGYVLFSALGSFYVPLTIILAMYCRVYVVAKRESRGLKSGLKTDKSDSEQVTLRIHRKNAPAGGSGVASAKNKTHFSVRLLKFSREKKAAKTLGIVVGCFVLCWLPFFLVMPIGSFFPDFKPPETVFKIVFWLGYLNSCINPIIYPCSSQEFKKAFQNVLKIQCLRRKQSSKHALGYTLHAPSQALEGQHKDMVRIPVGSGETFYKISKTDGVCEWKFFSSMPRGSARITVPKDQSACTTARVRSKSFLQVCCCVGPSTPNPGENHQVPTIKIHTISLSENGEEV
Method: Adult male New Zealand rabbits were sacrificed by cervical dislocation. The aorta was removed, placed in Krebs-Henseleit buffer and dissected free of adhering tissue. […] Desmethylimipramine (0.1 μm) and corticosterone (1 μM) to block neuronal and extraneuronal uptake of NA, (±)-propranol (1 μM) to block β adrenoceptors and yohimbine (0.1 μM) to block α2 adrenoceptors, were added to the buffer.
The preparations were allowed to equilibrate for 60 minutes and then primed every thirty minutes with 10 μM NA for three times. The aortic rings were then incubated with the alkylating agent chloroethylclonidine (5×10^−5 M) for 30 minutes and then washed extensively three times (in 0.5 hours) before constructing the NA-concentration/response curve. After washout of NA and re-equilibration of the tissue (45 minutes), the drug to be tested was added and, after 30 minutes, a second NA-cumulative-concentration/response curve constructed.
Each antagonist concentration was tested using 2-3 aortic rings from different rabbits.
Dose ratios (i.e., the ratio between the concentrations of NA required to produce half-maximal response in the presence and in the absence of the test antagonist) were calculated for each concentration of the compounds. The logarithm of these dose ratio-1 was plotted against the logarithm of the compound concentrations (Schild plot) to evaluate the affinity constant Kb.
When only one or two concentrations of the test compounds were utilised, the apparent Kb value was calculated using the formula: Kb=[B]/(DOSE RATIO-1), where B is the antagonist concentration.

[5] = molecular target: T5, 5HT1A-serotoninergic receptor (Homo sapiens, UniProt P08908); test: Radioligand binding, cloned 5-HT1A-serotoninergic receptor in HeLa membranes ([3H]8-OH-DPAT); design: expressed in transfected cells; host or cells: HeLa; conditions: cloned human 5-HT1A receptor in HeLa membranes, mean Ki, read-out: Affinity for 5-HT1A receptor, cloned receptors (Ki)
T5 sequence (P08908 1-422): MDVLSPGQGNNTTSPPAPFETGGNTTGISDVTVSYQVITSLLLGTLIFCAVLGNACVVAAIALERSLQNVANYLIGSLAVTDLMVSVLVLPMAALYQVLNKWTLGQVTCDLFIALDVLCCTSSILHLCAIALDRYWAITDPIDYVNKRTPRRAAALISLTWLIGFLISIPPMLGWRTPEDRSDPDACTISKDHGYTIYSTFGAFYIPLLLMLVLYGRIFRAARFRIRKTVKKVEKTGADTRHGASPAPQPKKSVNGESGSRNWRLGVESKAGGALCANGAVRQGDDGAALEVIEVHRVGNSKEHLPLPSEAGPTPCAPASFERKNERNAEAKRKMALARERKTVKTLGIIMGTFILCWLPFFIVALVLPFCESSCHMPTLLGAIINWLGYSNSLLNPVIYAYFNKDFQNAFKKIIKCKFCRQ
Method: HeLa cells were grown as monolayers in Dulbecco's Modified Eagle medium (DMEM) supplemented with 10% foetal calf serum and gentamicin (100 μg/mL), 5% CO2, at 37° C. The cells were detached from the growth flask at 95% confluence by a cell scraper and were lysed in ice-cold Tris-5-mM and EDTA-5-mM buffer (pH 7.4). The homogenates were centrifuged at 40000×g×20 minutes and the membranes were resuspended in a small volume of ice-cold buffer containing Tris 5 mM and EDTA 5 mM (pH 7.4), and immediately frozen and stored at −70° C. until use.
Non-specific binding was determined in the presence of 10 μM 5-HT. The incubation was stopped by addition of ice-cold Tris buffer and rapid filtration through 0.2% polyethyleneimine-pretreated Schleicher & Schuell filters.
as §4

Ki [1] [nM]	Ki [2] [nM]	Ki [3] [nM]	Functional affinity for the α1L adrenoceptor subtype, pKb [4]	Ki [5] [nM]	Structure (SMILES)
0.23	3.56	3.83	8.55	68.4	COc1ccc(Cl)cc1N1CCN(CCCNC(=O)c2cccc3c(=O)c(C)c(C(=O)N(C)C)oc23)CC1 [Example 6, 8-{3-[4-(5-Chloro-2-methoxyphenyl)-1-piperazinyl]propylcarbamoyl}-3-methyl-2-dimethylcarbamoyl-4-oxo-4H-1-benzopyran]
0.38	0.78	2.72	8.45	24.4	COc1ccc(Cl)cc1N1CCN(CCCNC(=O)c2cccc3c(=O)c(C)c(C#N)oc23)CC1 [Example 11, 8-{3-[4-(5-Chloro-2-methoxyphenyl)-1-piperazinyl]propylcarbamoyl}-2-cyano-3-methyl-4-oxo-4H-1-benzopyran]
1.6	9.42	13.1	8.03		COc1ccc(C(F)(F)F)cc1N1CCN(CCCNC(=O)c2cccc3c(=O)c(C)c(-c4ccccc4)oc23)CC1 [Example 17, 8-{3-[4-(2-Methoxy-5-trifluoromethylphenyl)-1-piperazinyl]propylcarbamoyl}-3-methyl-4-oxo-2-phenyl-4H-1-benzopyran]
0.136	2.61	4.79	8.72	22.4	Cc1c(-c2ccccc2)oc2c(C(=O)NCCCN3CCN(c4ccc(F)cc4OCC(F)(F)F)CC3)cccc2c1=O [Example 19, 8-<3-{4-[4-Fluoro-2-(2,2,2-trifluoroethoxy)phenyl]-1-piperazinyl}propylcarbamoyl>-3-methyl-4-oxo-2-phenyl-4H-1-benzopyran]
0.144	9.91	3.02	9	39.5	Cc1c(C(N)=O)oc2c(C(=O)NCCCN3CCN(c4cc(F)ccc4OCC(F)(F)F)CC3)cccc2c1=O [Example 8, 2-Carbamoyl-8-<3-{4-[5-fluoro-2-(2,2,2-trifluoroethoxy)phenyl]-1-piperazinyl}-propylcarbamoyl>-3-methyl-4-oxo-4H-1-benzopyran]

Structure (SMILES)	Ki [1] [nM]	Ki [2] [nM]	Ki [3] [nM]	Functional affinity for the α1L adrenoceptor subtype, pKb [4]	Ki [5] [nM]
COc1ccc(Cl)cc1N1CCN(CCCNC(=O)c2cccc3c(=O)c(C)c(NC(=O)OC(C)(C)C)oc23)CC1.O [Example 3, 2-(1,1-Dimethylethoxycarbonylamino)-8-{3-[4-(5-chloro-2-methoxyphenyl)-1-piperazinyl]propylcarbamoyl}-3-methyl-4-oxo-4H-1-benzopyran monohydrate]	0.2	0.32	0.45	8.43	81.9
